{"source": "patent US20260232690A1", "about": "“Treatment of the Chronic Effects of Brain Injury Using Rho Kinase Inhibitors” (WOOLSEY PHARMACEUTICALS, INC., priority 2023, published 2026)", "origin": "cited, not measured here", "tested_on": "salt-loaded hypertensive stroke-prone rats"}
{"molecule": "Cl.O=S(=O)(c1cccc2cnccc12)N1CCCNCC1", "note": "[Fasudil, 5-(1,4-Diazepane-1-sulfonyl) isoquinoline]", "values": [{"measurement": "nephrosclerosis", "value": "attenuate nephrosclerosis"}, {"measurement": "survival", "value": "improve survival"}]}
